Laboratory results reported in patent US5442053A, “Salts and mixtures of hyaluronic acid with pharmaceutically active substances, pharmaceutical compositions containing the same and methods for administration of such compositions” (Fidia, S.p.A., priority 1983, dated 1995).

Experiments:
staphylococcus aureus = assay: Recovery from dry inflammation in rabbit eye, staphylococcus aureus; format: in vivo
Description: (§1) Studies were carried out with hyaluronic acid salts of the antibiotics: streptomycin, erythromycin, neomycin and gentamicin. The salts utilized are the total salts in which all of the acid groups of hyaluronic acid are salified with a basic group of the antibiotic and prepared according to the procedures described hereinabove in Examples 1, 2, 4 and 5.
(§2) For administration, preparations were utilized comprising solutions of the HY drug complex in distilled water, having concentrations suitable to the antibiotic content:
(§3) The activity of the above HY salts was compared to that given by the same antibiotics dissolved in phosphate buffer and having the same concentrations of antibiotic. The activity of the two groups of products was measured on the basis of the time necessary to suppress a dry inflammation of the rabbit eye induced by a bacterial agent.
(§4) More precisely, the dry inflammation was determined in both eyes of 24 rabbits by intraocular injection of the titered suspension of one of the following bacterial groups: pseudomonas aeruginosa, staphylococcus aureus, salmonella typhi (0.1 ml). The various saline derivatives of the antibiotics were administered (3 drops every 6 hours) into the right eye (RE) of the rabbits, while into the left eye (LE) were instilled the corresponding quantities of the antibiotics dissolved in phosphate buffer. The treatment was begun immediately after injectin of the bacterial suspension and was continued until inflammation disappeared.
(§5) In particular the following were examined: the state of the conjuntiva and the corneal epithelium, anterior chamber (presence of the Tyndall effect), the state of the iris of the posterior segment of the eye. The state of the back of the eye was examined with a Goldman lens. The presence of signs of inflammation (hyperemia, exudates, cloudiness of the liquids etc.) was registered.

[1] = system: Bacillus subtillis ATCC 6633; assay: Antimicrobial activity of streptomycin sulphate vehicled in hyaluronic acid, agar diffusion; format: cell-based, Bacillus subtilis
Description: A solution of the two components (60 g hyaluronic acid sodium salt and 40 g streptomycin sulphate) was prepared and then freeze-dried.
The antimicrobial activity of the formulation of streptomycin in hyaluronic acid sodium salt, HYALASTINE fraction, was controlled by microbial assay by agar diffusion, based on the reading after a suitable period of incubation at 32° C., and on a comparison of the diameters of the microorganism's inhibition zones (Bacillus subtillis ATCC 6633) determined on the presumed concentrations of the antibiotic under examination and on the corresponding and known concentrations of the working standard.
After 18 hours of incubation of the assay plate at 32° C., it was observed that streptomycin vehicled in
The results (Table 11) were obtained by measuring the diameter of microbial inhibition zones at working concentrations of 20 and 5 UI/ml, and expressed in units of antimicrobial activity per miligram of the mixture compared to streptomycin sulphate.

pseudomonas aeruginosa = assay: Recovery from dry inflammation in rabbit eye, pseudomonas aeruginosa; format: in vivo
Description: as §1, §2, §3, §4, §5

rabbit eye = assay: Anti-inflammatory activity of triamcinolone vehicled in hyaluronic acid, dextran-induced intraocular inflammation; format: in vivo, rabbit (male New Zealand); details: for Evaluated Score, Conjunctiva / Evaluated Score, Cornea / Evaluated Score, Iris / Evaluated Score, Tyndall: score 0 to 3
Description: The experiments were carried out on male New Zealand rabbits (average weight 1.6 kg). After an adaption period of 5 days, introocular inflammation was induced in the rabbits by intraocular injection of dextran (10%, 0.1 ml). The administration was effected in both eyes under local anaesthetic with 4% Novesina, inserting the needle of the syringe at the edge of the cornea in the anterior chamber at a distance of 2 mm. The test was conducted on 10 animals.
Treatment was effected in each animal both in the right and left eyes, by instillation of 3 drops 3 times a day for 6 days in all, of the following:
a solution of triamcinolone (10% in saline) in the left eye (LE);
a solution of hyaluronic acid sodium salt, HYALECTIN fraction, (10 mg/ml)+triamcinolone phosphate (10%) in the right eye (RE).
The anti-inflammatory effect on the reaction induced by dextran was evaluated by observing the eye with a slit lamp at the following intervals: 0, 1 hr, 3 hr, 24 hr, 48 hr, 3 days, 4 days, 5 days and 6 days.
At the intervals, the eye examination evaluated the following observations:
the state of the cornea and conjunctiva for the possible presence of hypermia, edema, and especially observation of the iris which is normally sensitive to inflammatory processes after injection of inflammatory agents into the anterior chamber;
the Tyndall effect, in which the presence of opacity of varying intensity ("nubecula") is indicative of the presence of corpuscular (inflammatory) elements in the anterior chamber.
The result of the observation was expressed in terms of subjective scoring (from 0 to 3) related to the gradualness of the effect noted.

salmonella typhi = assay: Recovery from dry inflammation in rabbit eye, salmonella typhi; format: in vivo
Description: as §1, §2, §3, §4, §5

[2] = day 1, pseudomonas aeruginosa, 3 drops every 6 hours, 6 eyes

## CC[C@H]1OC(=O)[C@H](C)[C@@H](O[C@H]2C[C@@](C)(OC)[C@@H](O)[C@H](C)O2)[C@H](C)[C@@H](O[C@@H]2O[C@H](C)C[C@H](N(C)C)[C@H]2O)[C@](C)(O)C[C@@H](C)C(=O)[C@H](C)[C@@H](O)[C@]1(C)O [Erthromycin, erythromycin]
Staphylococcus aureus; day 1, staphylococcus aureus, 3 drops every 6 hours, 6 eyes
  percentage of eyes which did not present any signs of inflammation: 0.0%
Staphylococcus aureus; day 2, staphylococcus aureus
  percentage of eyes which did not present any signs of inflammation: 0.0%
Staphylococcus aureus; day 3, staphylococcus aureus
  percentage of eyes which did not present any signs of inflammation: 0.0%
Staphylococcus aureus; day 4, staphylococcus aureus
  percentage of eyes which did not present any signs of inflammation: 0.0%
Staphylococcus aureus; day 5, staphylococcus aureus
  percentage of eyes which did not present any signs of inflammation: 0.0%
Staphylococcus aureus; day 6, staphylococcus aureus
  percentage of eyes which did not present any signs of inflammation: 0.0%
Staphylococcus aureus; day 7, staphylococcus aureus
  percentage of eyes which did not present any signs of inflammation: 16.6%
Staphylococcus aureus; day 8, staphylococcus aureus
  percentage of eyes which did not present any signs of inflammation: 33.3%

## [H]/N=C(/N)N[C@H]1[C@H](O)[C@@H](O)[C@H](O[C@@H]2O[C@@H](C)[C@](O)(C=O)[C@H]2O[C@@H]2O[C@@H](CO)[C@H](O)[C@@H](O)[C@@H]2NC)[C@@H](N/C(N)=N\[H])[C@@H]1O [Streptomycin sulphate, streptomycin sulphate]
[1]
  antimicrobial activity, Theoretical: 750 UI/MG
[1]; 18 hours, 32° C., 20 and 5 UI/ml
  antimicrobial activity, Effective: 750 UI/MG
[1]; values in parenthesis
  antimicrobial activity, Effective (as streptomycin sulphate content): 1000 mg/gr
  antimicrobial activity, Theoretical (as streptomycin sulphate content): 1000 mg/gr

## [H]/N=C(/N)N[C@H]1[C@H](O)[C@@H](O)[C@H](O[C@@H]2O[C@@H](C)[C@](O)(C=O)[C@H]2O[C@@H]2O[C@@H](CO)[C@H](O)[C@@H](O)[C@@H]2NC)[C@@H](N/C(N)=N\[H])[C@@H]1O [Streptomycin, streptomycin]
Pseudomonas aeruginosa; [2]
  percentage of eyes which did not present any signs of inflammation: 0.0%
Pseudomonas aeruginosa; day 2, pseudomonas aeruginosa
  percentage of eyes which did not present any signs of inflammation: 0.0%
Pseudomonas aeruginosa; day 3, pseudomonas aeruginosa
  percentage of eyes which did not present any signs of inflammation: 0.0%
Pseudomonas aeruginosa; day 4, pseudomonas aeruginosa
  percentage of eyes which did not present any signs of inflammation: 0.0%
Pseudomonas aeruginosa; day 5, pseudomonas aeruginosa
  percentage of eyes which did not present any signs of inflammation: 0.0%
Pseudomonas aeruginosa; day 6, pseudomonas aeruginosa
  percentage of eyes which did not present any signs of inflammation: 16.6%
Pseudomonas aeruginosa; day 7, pseudomonas aeruginosa
  percentage of eyes which did not present any signs of inflammation: 50.0%
Pseudomonas aeruginosa; day 8, pseudomonas aeruginosa
  percentage of eyes which did not present any signs of inflammation: 100.0%

## C[C@]12C=CC(=O)C=C1CC[C@H]1[C@@H]3C[C@@H](O)[C@](O)(C(=O)CO)[C@@]3(C)C[C@H](O)[C@@]12F [triamcinolone]
Rabbit eye; 0
  Evaluated Score, Conjunctiva: 0.0
  Evaluated Score, Cornea: 0.0
  Evaluated Score, Iris: 0.0
  Evaluated Score, Tyndall: 0.0
Rabbit eye; 1 hour
  Evaluated Score, Conjunctiva: 0.2
  Evaluated Score, Cornea: 1.0
  Evaluated Score, Iris: 0.5
  Evaluated Score, Tyndall: 1.0
Rabbit eye; 3 hours
  Evaluated Score, Conjunctiva: 0.0
  Evaluated Score, Cornea: 0.0
  Evaluated Score, Iris: 2.7
  Evaluated Score, Tyndall: 3.0
Rabbit eye; 24 hours
  Evaluated Score, Conjunctiva: 0.0
  Evaluated Score, Cornea: 0.1
  Evaluated Score, Iris: 3.0
  Evaluated Score, Tyndall: 3.0
Rabbit eye; 48 hours
  Evaluated Score, Conjunctiva: 0.0
  Evaluated Score, Cornea: 0.0
  Evaluated Score, Iris: 3.0
  Evaluated Score, Tyndall: 3.0
Rabbit eye; 3 days
  Evaluated Score, Conjunctiva: 0.0
  Evaluated Score, Cornea: 0.0
  Evaluated Score, Iris: 3.0
  Evaluated Score, Tyndall: 3.0
Rabbit eye; 4 days
  Evaluated Score, Conjunctiva: 0.0
  Evaluated Score, Cornea: 0.0
  Evaluated Score, Iris: 2.4
  Evaluated Score, Tyndall: 2.2
Rabbit eye; 5 days
  Evaluated Score, Conjunctiva: 0.0
  Evaluated Score, Cornea: 0.0
  Evaluated Score, Iris: 1.5
  Evaluated Score, Tyndall: 1.2
Rabbit eye; 6 days
  Evaluated Score, Conjunctiva: 0.0
  Evaluated Score, Cornea: 0.0
  Evaluated Score, Iris: 0.5
  Evaluated Score, Tyndall: 0.4
Rabbit eye; dextran-induced intraocular inflammation
  anti-inflammatory effect (in words): almost normal conditions are restored, with perfect limpidness of the eye by the 6th day

## gentamicin [Gentamycin]
Pseudomonas aeruginosa; [2]
  percentage of eyes which did not present any signs of inflammation: 0.0%
Pseudomonas aeruginosa; day 2, pseudomonas aeruginosa
  percentage of eyes which did not present any signs of inflammation: 0.0%
Pseudomonas aeruginosa; day 3, pseudomonas aeruginosa
  percentage of eyes which did not present any signs of inflammation: 0.0%
Pseudomonas aeruginosa; day 4, pseudomonas aeruginosa
  percentage of eyes which did not present any signs of inflammation: 0.0%
Pseudomonas aeruginosa; day 5, pseudomonas aeruginosa
  percentage of eyes which did not present any signs of inflammation: 0.0%
Pseudomonas aeruginosa; day 6, pseudomonas aeruginosa
  percentage of eyes which did not present any signs of inflammation: 33.3%
Pseudomonas aeruginosa; day 7, pseudomonas aeruginosa
  percentage of eyes which did not present any signs of inflammation: 50.0%
Pseudomonas aeruginosa; day 8, pseudomonas aeruginosa
  percentage of eyes which did not present any signs of inflammation: 100.0%

## neomycin
Salmonella typhi; day 1, salmonella typhi, 3 drops every 6 hours, 6 eyes
  percentage of eyes which did not present any signs of inflammation: 0.0%
Salmonella typhi; day 2, salmonella typhi
  percentage of eyes which did not present any signs of inflammation: 0.0%
Salmonella typhi; day 3, salmonella typhi
  percentage of eyes which did not present any signs of inflammation: 0.0%
Salmonella typhi; day 4, salmonella typhi
  percentage of eyes which did not present any signs of inflammation: 0.0%
Salmonella typhi; day 5, salmonella typhi
  percentage of eyes which did not present any signs of inflammation: 0.0%
Salmonella typhi; day 6, salmonella typhi
  percentage of eyes which did not present any signs of inflammation: 0.0%
Salmonella typhi; day 7, salmonella typhi
  percentage of eyes which did not present any signs of inflammation: 16.6%
Salmonella typhi; day 8, salmonella typhi
  percentage of eyes which did not present any signs of inflammation: 33.3%
